Biological target: T1, human CXCR3 (N-delta 4) (Homo sapiens, UniProt P49682)
T1 construct: CD8 leader (N); Flag; expressed in transfected cells; membranes prepared
T1 sequence (P49682 5-368 limits assumed): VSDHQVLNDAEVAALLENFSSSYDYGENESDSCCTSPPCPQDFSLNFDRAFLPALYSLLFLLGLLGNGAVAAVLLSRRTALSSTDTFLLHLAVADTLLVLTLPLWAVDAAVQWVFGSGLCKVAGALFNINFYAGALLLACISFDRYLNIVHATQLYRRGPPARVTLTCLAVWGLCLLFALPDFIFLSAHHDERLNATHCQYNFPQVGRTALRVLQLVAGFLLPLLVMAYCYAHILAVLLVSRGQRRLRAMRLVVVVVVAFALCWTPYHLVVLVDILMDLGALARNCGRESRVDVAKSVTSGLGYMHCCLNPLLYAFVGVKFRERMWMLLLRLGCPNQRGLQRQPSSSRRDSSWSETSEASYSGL
Assay: Human CXCR3 (N-delta 4) Scintillation Proximity Assay (SPA), [125I] IP-10 binding to Ba/F3-hCXCR3 membranes
Details: IC50 rating, Table 1; read-out: IC50

| SMILES | IC50 |
| --- | --- |
| CC[C@H]1CN(c2nc(N)c(C(N)=O)nc2Cl)CCN1C1CCN(Cc2ccc(Cl)cc2C2COC(=O)O2)CC1 (some centres unmarked) [compound 375] | 0.025 to 0.1 µM |
| CC[C@H]1CN(c2nc(N)c(C(=O)NCCO)nc2Cl)CCN1C1CCN(C(CCNC(C)=O)c2ccc(Cl)cc2)CC1 (some centres unmarked) [compound 179] | 0.025 to 0.1 µM |
| CC[C@H]1CN(c2nc(N)c(C(=O)NC3CC3)nc2Cl)CCN1C1CCN(Cc2ccc(Cl)cc2)CC1O (some centres unmarked) [compound 95] | 0.025 to 0.1 µM |
| CC[C@H]1CN(c2nc(N)c(C(=O)NCCS(C)(=O)=O)nc2Cl)CCN1C1CCN(Cc2ccc(Cl)cc2)CC1 [compound 101] | 0.025 to 0.1 µM |
| CC[C@H]1CN(c2nc(N)c(C(=O)NC[C@@H](O)CO)nc2Cl)CCN1C1CCN(C(=O)c2ccc(Cl)cc2)CC1 [compound 356] | > 0.1 µM |
| CC[C@H]1CN(c2nc(N)c(C(N)=O)nc2Cl)CCN1C1CCN(Cc2ccc(Cl)cc2CCNC(C)=O)CC1 [compound 41] | 0.025 to 0.1 µM |
| CC[C@H]1CN(c2nc(N)c(C(=O)NCCNS(=O)(=O)N(C)C)nc2Cl)CCN1C1CCN(Cc2ccc(C#N)cc2)CC1 [compound 255] | 0.025 to 0.1 µM |
| CC[C@H]1CN(c2nc(N)c(C(=O)NN)nc2Cl)CCN1C1CCN(C(=O)c2ccc(Cl)cc2)CC1 [compound 358] | > 0.1 µM |
| CC[C@H]1CN(c2nc(N)c(C(=O)NCCO)nc2Cl)CCN1C1CCN(Cc2ccc(Cl)cc2NS(C)(=O)=O)CC1 [compound 196] | > 0.1 µM |
| CC[C@H]1CN(c2nc(N)c(C(N)=O)nc2Cl)CCN1C1CCN(Cc2ccc(Cl)cc2CC(=O)OC)CC1 [compound 38] | 0.025 to 0.1 µM |
| CC[C@H]1CN(c2nc(N)c(C(=O)NCCO)nc2Cl)CCN1C1CCN(Cc2ccc(N3CCOCC3)c(F)c2F)CC1 [compound 205] | > 0.1 µM |
| CC[C@H]1CN(c2nc(N)c(C(=O)OC)nc2Cl)CCN1C1CCN(Cc2ccc(C#N)cc2OCCO)CC1 [compound 307] | > 0.1 µM |
| CC[C@H]1CN(c2nc(N)c(C(=O)N[C@@H]3CCN(C(=O)OC(C)(C)C)C3)nc2Cl)CCN1C1CCN(Cc2ccc(Cl)cc2)CC1 [compound 274] | > 0.1 µM |
| CC[C@H]1CN(c2nc(N)c(C(=O)NCCO)nc2Cl)CCN1C1CCN(Cc2ccc(F)c(F)c2N2CCC(=O)C2)CC1 [compound 188] | 0.025 to 0.1 µM |
| CC[C@H]1CN(c2nc(N)c(C(N)=O)nc2Cl)CCN1C1CCN(Cc2ccc(Cl)cc2C2NC(=O)N(C)C2=O)CC1 (some centres unmarked) [compound 380] | > 0.1 µM |
| CC[C@H]1CN(c2nc(N)c(C(=O)NC[C@H](O)CO)nc2Cl)CCN1C1CCN(C(=O)c2ccc(Cl)cc2)CC1 [compound 359] | > 0.1 µM |
| C[C@@H]1CN(C2CCN(Cc3ccc(Cl)cc3F)CC2)[C@@H](C)CN1c1cnc(C(N)=O)cn1 [compound 289] | > 0.1 µM |
| COC(=O)c1nc(Cl)c(N2CCN(C3CCN(Cc4ccc(Cl)cc4)CC3)[C@@H](C)C2)nc1N [compound 302] | > 0.1 µM |
| CC[C@H]1CN(c2nc(N)c(C(=O)OC)nc2Cl)CCN1C1CCN(Cc2ccc(Cl)cc2C#N)CC1 [compound 300] | > 0.1 µM |
| CC[C@H]1CN(c2nc(N)c(C(N)=O)nc2Cl)CCN1C1CCN([C@@H](C(=O)NC2CC2)c2ccc(Cl)cc2)CC1 [compound 45] | > 0.1 µM |
| CC[C@H]1CN(c2nc(N)c(C(=O)NCCO)nc2Cl)CCN1C1CCN(Cc2ccc(Cl)cc2C(C)C(=O)O)CC1 (some centres unmarked) [compound 202] | > 0.1 µM |
| CC[C@H]1CN(c2nc(N)c(C(=O)NCCO)nc2Cl)CCN1C1CCN(Cc2ccc(Cl)c(F)c2O)CC1 [compound 155] | < 0.025 µM |
| CC[C@H]1CN(c2nc(N)c(C(=O)NCCO)nc2Cl)CCN1C1CCN([C@@H](CO)c2ccc(Cl)cc2)CC1 [compound 109] | < 0.025 µM |
| CC[C@H]1CN(c2nc(N)c(C(=O)OC)nc2Cl)CCN1C1CCN(Cc2ccc(Cl)cc2CCNC(C)=O)CC1 [compound 309] | > 0.1 µM |
| CC[C@H]1CN(c2ncc(C(=O)NC3(C)CC3)nc2C)[C@H](C)CN1C1CCN(C(=O)c2ccc(Cl)cc2)CC1 [compound 479] | < 0.025 µM |
| CC[C@H]1CN(c2nc(N)c(C(=O)NCCO)nc2Cl)CCN1C1CCN(C(=O)c2ccc(F)c(F)c2NCc2ccccc2)CC1 [compound 360] | > 0.1 µM |
| CC[C@H]1CN(c2nc(N)c(C(=O)NCCO)nc2Cl)CCN1C1CCN(Cc2ccc(Cl)cc2OCCNC(=O)OC(C)(C)C)CC1 [compound 120] | < 0.025 µM |
| CC[C@H]1CN(c2nc(N)c(C(=O)N[C@@H]3CCNC3=O)nc2Cl)CCN1C1CCN(Cc2ccc(C#N)cc2)CC1 [compound 280] | > 0.1 µM |
| CC[C@H]1CN(c2nc(N)c(C(=O)OC)nc2Cl)CCN1C1CCN(Cc2ccc(Cl)cc2CCNS(C)(=O)=O)CC1 [compound 303] | > 0.1 µM |

The next lines start with the values.

| IC50 | SMILES |
| --- | --- |
| < 0.025 µM | CC[C@H]1CN(c2ncc(C(=O)NC)nc2C(F)(F)F)CCN1C1CCN(C(=O)c2ccc(Cl)cc2)CC1 [compound 477] |
| < 0.025 µM | CC[C@H]1CN(c2nc(N)c(C(=O)NCC(C)O)nc2Cl)CCN1C1CCN(Cc2ccc(Cl)cc2)CC1 (some centres unmarked) [compound 217] |
| < 0.025 µM | CC[C@H]1CN(c2ncc(C(N)=O)nc2C(F)(F)F)[C@H](C)CN1C1CCN(C(=O)c2ccc(Cl)cc2)CC1 [compound 478] |
| < 0.025 µM | CC[C@H]1CN(c2nc(N)c(C(=O)NCCNC(C)=O)nc2Cl)CCN1C1CCN(Cc2ccc(Cl)cc2)CC1 [compound 230] |
| < 0.025 µM | CC[C@H]1CN(c2ncc(C(=O)NC)nc2C)CCN1C1CCN(C(=O)c2ccc(Cl)cc2F)CC1 [compound 455] |
| < 0.025 µM | CC[C@H]1CN(c2nc(N)c(C(=O)NCC(=O)OC)nc2Cl)CCN1C1CCN(Cc2ccc(Cl)cc2)CC1 [compound 214] |
| < 0.025 µM | CC[C@H]1CN(c2nc(N)c(C(=O)NC3CC3)nc2Cl)CCN1C1CCN(Cc2ccc(C#N)cc2OCC(=O)NC2CC2)CC1 [compound 92] |
| < 0.025 µM | CC[C@H]1CN(c2nc(N)c(C(=O)NC3CCOC3=O)nc2Cl)CCN1C1CCN(Cc2ccc(Cl)cc2)CC1 (some centres unmarked) [compound 278] |
| < 0.025 µM | CC[C@H]1CN(c2nc(N)c(C(=O)NC3CC3)nc2Cl)CCN1C1CCN(Cc2ccc(Cl)cc2CN)CC1 [compound 87] |
| < 0.025 µM | CC[C@H]1CN(c2ncc(C(=O)NC)nc2C)[C@H](C)CN1C1CCN(C(=O)c2ccc(Cl)cc2)CC1 [compound 452] |
| < 0.025 µM | CC[C@H]1CN(c2nc(N)c(C(=O)NCCNS(N)(=O)=O)nc2Cl)CCN1C1CCN(Cc2ccc(Cl)cc2C(=N)NC)CC1 [compound 260] |
| < 0.025 µM | CC[C@H]1CN(c2nc(N)c(C(=O)NNC(=S)NC)nc2Cl)CCN1C1CCN(Cc2ccc(Cl)cc2)CC1 [compound 270] |
| < 0.025 µM | CC[C@H]1CN(c2nc(N)c(C(=O)NCCO)nc2Cl)CCN1C1CCN(Cc2ccc(OC(F)(F)F)cc2OCCOC)CC1 [compound 118] |
| < 0.025 µM | CC[C@H]1CN(c2nc(NC(=O)C(F)(F)F)c(C(N)=O)nc2Cl)CCN1C1CCN(Cc2ccc(Cl)cc2F)CC1 [compound 292] |
| < 0.025 µM | CC[C@H]1CN(c2ncc(C(=O)NC)nc2C)CCN1C1CCN(C(=O)c2ccc(Cl)cc2)CC1 [compound 437] |
| < 0.025 µM | CC[C@H]1CN(c2nc(N)c(C(=O)NCCO)nc2Cl)CCN1C1CCN(Cc2ccc(Cl)cc2/C(N)=N\O)CC1 [compound 108] |

| IC50 | SMILES |
| --- | --- |
| < 0.025 µM | CC[C@H]1CN(c2ncc(C(N)=O)nc2Cl)CCN1C1CCN([C@H](CO)c2ccc(Cl)cc2)CC1 [compound 458] |
| < 0.025 µM | CC[C@H]1CN(c2ncc(C(N)=O)nc2Br)CCN1C1CCN(C(=O)c2ccc(Cl)cc2)CC1 [compound 387] |
| < 0.025 µM | CC[C@H]1CN(c2nc(N)c(C(=O)NC3CC3)nc2Cl)CCN1C1CCN(Cc2ccc(Cl)cc2S(C)(=O)=O)CC1 [compound 420] |
| < 0.025 µM | CC[C@H]1CN(c2ncc(C(=O)NC3CC3)nc2C)CCN1C1CCN(C(=O)c2ccc(Cl)cc2)CC1 [compound 460] |
| < 0.025 µM | CC[C@H]1CN(c2nc(N)c(C(=O)NCCO)nc2Cl)CCN1C1CCN(C(=O)c2ccc(Cl)cc2N)CC1 [compound 339] |
| < 0.025 µM | CC[C@H]1CN(c2nc(N)c(C(=O)NCCO)nc2Cl)CCN1C1CCN(Cc2ccc(Cl)c(OCCS(C)(=O)=O)c2)CC1 [compound 410] |
| < 0.025 µM | CC[C@H]1CN(c2nc(N)c(C(=O)NCCO)nc2Cl)CCN1C1CCN(Cc2ccc(C#N)cc2OCCOC)CC1 [compound 163] |
| < 0.025 µM | CC[C@H]1CN(c2nc(N)c(C(=O)NCCO)nc2Cl)CCN1C1CCN(Cc2ccc(Cl)cc2OCCNC(=O)NC(C)(C)C)CC1 [compound 137] |
| < 0.025 µM | CC[C@H]1CN(c2ncc(C(N)=O)nc2C)[C@H](C)CN1C1CCN(Cc2ccc(C#N)cc2)CC1 [compound 434] |
| < 0.025 µM | CC[C@H]1CN(c2nc(N)c(C(=O)NC[C@@H](C)O)nc2Cl)CCN1C1CCN(Cc2ccc(C#N)cc2)CC1 [compound 221] |
| < 0.025 µM | CC[C@H]1CN(c2nc(N)c(C(=O)OC)nc2Cl)CCN1C1CCN(Cc2ccc(Cl)cc2CCN)CC1 [compound 294] |
| < 0.025 µM | CC[C@H]1CN(c2nc(N)c(C(=O)NCCO)nc2Cl)CCN1C1CCN(Cc2ccc(Cl)cc2OCCNC(=O)NC2CCCCC2)CC1 [compound 131] |
| < 0.025 µM | CC[C@H]1CN(c2nc(N)c(C(=O)NCCO)nc2Cl)CCN1C1CCN(Cc2ccc(OC(F)(F)F)cc2OCCCCO)CC1 [compound 119] |
| < 0.025 µM | CC[C@H]1CN(c2nc(N)c(C(=O)NC3CC3)nc2Cl)CCN1C1CCN(Cc2ccc(Cl)cc2O)CC1 [compound 84] |
| < 0.025 µM | CC[C@H]1CN(c2nc(N)c(C(=O)NCCO)nc2Cl)CCN1C1CCN(C(=O)c2ccc(Cl)cc2OCCNC(=O)OC(C)(C)C)CC1 [compound 315] |
| < 0.025 µM | CC[C@H]1CN(c2nc(N)c(C(=O)NCCO)nc2Cl)CCN1C1CCN(Cc2cc(F)c(Cl)cc2O)CC1 [compound 159] |

Same assay, conditions: human; read-out: human IC50

| SMILES | IC50 |
| --- | --- |
| CC[C@H]1CN(c2ncc(C(N)=O)nc2C(F)(F)F)CCN1C1CCN(C(=O)c2ccc(Cl)cc2)CC1 [Formula 13] | < 0.001 µM |

From US7868005B2, “Pyrazinyl substituted piperazine-piperidines with CXCR3 antagonist activity” (Schering Corporation, priority 2005, dated 2011)
